± gives the standard deviation of the averaged measurements.
Tests used:
[1] = compound: CN(C)C/C=C/C(=O)Nc1cc2c(Nc3ccc(F)c(Cl)c3)ncnc2cc1O[C@H]1CCOC1 [AFATINIB]; assay: surviving fraction relative to DMSO-only wells; higher = less growth inhibition; details: exposure time: 5 days
In short: (§1)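 Each tumour cell line was screened three times, and only lines with replicate Pearson r >0.7 and median Z' >0.3 were kept. Cells in log phase were seeded at 250–500 per well in 384-well plates, left 24 hours, then exposed continuously for five days to inhibitors at 0.5, 1, 5, 10, 50, 100, 500 and 1000 nM. Viability was read as CellTiter-Glo luminescence, with surviving fraction normalised to the median of DMSO-only wells.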

[2] = compound: CC1(C)CC(=O)c2c(C(F)(F)F)nn(-c3ccc(C(N)=O)c(N[C@H]4CC[C@H](OC(=O)CN)CC4)c3)c2C1 [SNX-5422]; assay: as above; details: exposure time: 5 days
In short: as §1

[3] = compound: CC[C@@H]1C(=O)N(C)c2cnc(Nc3ccc(C(=O)NC4CCN(C)CC4)cc3OC)nc2N1C1CCCC1 [BI-2536]; assay: area under dose-response curve of surviving fraction (unscaled, Aref=0) (surviving fraction x log10(nM)); higher = more resistant; details: exposure time: 5 days; dose range 0.5-1000 nM
In short: (§2)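 Tumour cell lines in 384-well plates were exposed for five days to eight inhibitor concentrations from 0.5 to 1000 nM. Viability was read by CellTiter-Glo luminescence, normalised to DMSO-only wells, in three screens per line. Dose-response survival curves were fitted to surviving fractions by 3-parameter logistic regression in the drc R package. Area under the curve is the unscaled activity area (Aref = 0) over log10 dose.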

[4] = compound: C=CC(=O)Nc1cc2c(Nc3ccc(F)c(Cl)c3)ncnc2cc1OCCCN1CCOCC1 [CANERTINIB]; assay: as above; details: exposure time: 5 days; dose range 0.5-1000 nM
In short: as §2

[5] = compound: Cn1cc(C2=Nc3cc(NC(=O)C(N)C4CCCCC4)cc4c3C2=CNNC4=O)cn1; assay: as above; details: exposure time: 5 days; dose range 0.5-1000 nM
In short: as §2

[6] = compound: CCCCCCCCCCCCCCCC(=O)Nc1ccn([C@@H]2O[C@H](CO)[C@@H](O)[C@@H]2C#N)c(=O)n1 [SAPACITABINE]; assay: as above; details: exposure time: 5 days; dose range 0.5-1000 nM
In short: as §2

Test System | surviving fraction ([1]; 0.5 nM) | surviving fraction ([1]; 1 nM) | surviving fraction ([1]; 5 nM) | surviving fraction ([1]; 10 nM) | surviving fraction ([1]; 50 nM) | surviving fraction ([1]; 100 nM) | surviving fraction ([1]; 500 nM) | surviving fraction ([1]; 1000 nM) | surviving fraction ([2]; 0.5 nM) | surviving fraction ([2]; 1 nM) | surviving fraction ([2]; 5 nM) | surviving fraction ([2]; 10 nM) | surviving fraction ([2]; 50 nM) | surviving fraction ([2]; 100 nM) | surviving fraction ([2]; 500 nM) | surviving fraction ([2]; 1000 nM) | area under dose-response curve [3] | area under dose-response curve [4] | area under dose-response curve [5] | area under dose-response curve [6]
MG63 BONE | 1.02 ± 0.046 | 1.03 ± 0.023 | 1.08 ± 0.022 | 1.058 ± 0.0069 | 1.05 ± 0.059 | 1.08 ± 0.017 | 0.951 ± 0.04 | 0.831 ± 0.038 | 1.04 ± 0.035 | 1.03 ± 0.047 | 1.09 ± 0.037 | 1.11 ± 0.053 | 0.496 ± 0.026 | 0.351 ± 0.029 | 0.13 ± 0.0085 | 0.136 ± 0.013 | 1.12 | 3.24 | 2.46 | 2.19
JIMT1 BREAST | 0.987 ± 0.023 | 0.994 ± 0.029 | 0.96 ± 0.015 | 0.909 ± 0.044 | 0.732 ± 0.028 | 0.687 ± 0.049 | 0.603 ± 0.012 | 0.301 ± 0.014 | 0.994 ± 0.017 | 0.973 ± 0.032 | 1.01 ± 0.026 | 1.01 ± 0.015 | 0.792 ± 0.0081 | 0.271 ± 0.029 | 0.0693 ± 0.0067 | 0.0723 ± 0.0026 | 0.911 | 2.93 | 2.96 | 2.84
HT1080 SOFT TISSUE | 0.994 ± 0.033 | 1.02 ± 0.015 | 1.037 ± 0.0045 | 0.991 ± 0.048 | 0.985 ± 0.036 | 1 ± 0.047 | 0.943 ± 0.031 | 0.729 ± 0.055 | 1.02 ± 0.016 | 1.03 ± 0.0021 | 1.062 ± 0.0015 | 1.155 ± 0.01 | 0.414 ± 0.034 | 0.238 ± 0.011 | 0.121 ± 0.007 | 0.12 ± 0.01 | 1.26 | 3.29 | 2.6 | 2.33
MDAMB231 BREAST | 1.05 ± 0.026 | 1.05 ± 0.028 | 1.06 ± 0.037 | 1.05 ± 0.027 | 1.04 ± 0.03 | 0.995 ± 0.025 | 0.668 ± 0.013 | 0.335 ± 0.021 | 0.971 ± 0.021 | 0.998 ± 0.034 | 1.01 ± 0.035 | 1.02 ± 0.018 | 0.65 ± 0.032 | 0.455 ± 0.03 | 0.0989 ± 0.0031 | 0.0988 ± 0.0026 | 1.56 | 3.15 | 2.84 | 2.9
HU09 BONE | 1.08 ± 0.085 | 1.02 ± 0.1 | 1.16 ± 0.074 | 1.14 ± 0.087 | 1.12 ± 0.067 | 1.06 ± 0.15 | 0.6 ± 0.049 | 0.231 ± 0.012 | 1.02 ± 0.032 | 0.991 ± 0.095 | 1.03 ± 0.15 | 0.701 ± 0.017 | 0.0323 ± 0.0029 | 0.023 ± 0.0017 | 0.0257 ± 0.0021 | 0.03 ± 0.002 | 0.614 | 3.15 | 2.19 | 2.37
SIHA CERVIX | 1.05 ± 0.025 | 1.06 ± 0.069 | 1.02 ± 0.022 | 1.01 ± 0.064 | 1.03 ± 0.011 | 1.07 ± 0.085 | 0.845 ± 0.019 | 0.684 ± 0.052 | 1.11 ± 0.1 | 1.1 ± 0.096 | 1.21 ± 0.055 | 1.23 ± 0.095 | 0.423 ± 0.034 | 0.262 ± 0.002 | 0.2 ± 0.0087 | 0.188 ± 0.0084 | 1.43 | 2.92 | 3.22 | 3.12
LM7 BONE | 1.02 ± 0.049 | 1 ± 0.14 | 1.02 ± 0.074 | 1.07 ± 0.026 | 1.02 ± 0.026 | 0.914 ± 0.091 | 0.443 ± 0.051 | 0.169 ± 0.013 | 1 ± 0.11 | 0.896 ± 0.075 | 0.946 ± 0.059 | 0.904 ± 0.077 | 0.294 ± 0.028 | 0.176 ± 0.0099 | 0.0897 ± 0.0035 | 0.0873 ± 0.01 | 0.659 | 2.42 | 2.46 | 1.77
HCC1954 BREAST | 0.969 ± 0.079 | 0.886 ± 0.021 | 0.763 ± 0.028 | 0.56 ± 0.0078 | 0.471 ± 0.094 | 0.479 ± 0.025 | 0.266 ± 0.038 | 0.145 ± 0.011 | 0.8303 ± 0.0039 | 0.93 ± 0.028 | 0.873 ± 0.042 | 0.762 ± 0.06 | 0.151 ± 0.0095 | 0.109 ± 0.0067 | 0.0587 ± 0.0011 | 0.062 ± 0.0021 | 1.92 | 0.92 | 2.06 | 1.48
VP229 BREAST | 1.1 ± 0.11 | 1.03 ± 0.13 | 0.645 ± 0.079 | 0.586 ± 0.076 | 0.324 ± 0.011 | 0.273 ± 0.04 | 0.272 ± 0.021 | 0.165 ± 0.025 | 1.286 ± 0.012 | 1.15 ± 0.17 | 1.12 ± 0.08 | 1.03 ± 0.16 | 0.612 ± 0.034 | 0.628 ± 0.1 | 0.0873 ± 0.019 | 0.088 ± 0.011 | 1.18 | 1.58 | 3.5 | 2.46
VCAP PROSTATE | 1.07 ± 0.14 | 1 ± 0.16 | 1.06 ± 0.093 | 1.06 ± 0.051 | 1.06 ± 0.064 | 1.03 ± 0.14 | 0.723 ± 0.14 | 0.405 ± 0.043 | 1.13 ± 0.051 | 1.03 ± 0.057 | 1.08 ± 0.081 | 1.15 ± 0.086 | 0.279 ± 0.024 | 0.141 ± 0.0038 | 0.165 ± 0.0055 | 0.161 ± 0.013 | 0.516 | 3.15 | 2.82 | 3.11
OSHN BONE | 1.08 ± 0.03 | 1.07 ± 0.031 | 1.09 ± 0.042 | 1.07 ± 0.032 | 1.11 ± 0.032 | 1.11 ± 0.033 | 1.1 ± 0.031 | 1.06 ± 0.019 | 1.1 ± 0.024 | 1.11 ± 0.036 | 1.11 ± 0.012 | 1.1 ± 0.018 | 0.842 ± 0.067 | 0.162 ± 0.0064 | 0.138 ± 0.0047 | 0.136 ± 0.0076 | 1.13 | 3.16 | 2.6 | 2.83
NCIH441 LUNG | 1.15 ± 0.086 | 1.11 ± 0.042 | 1.1 ± 0.1 | 1.04 ± 0.04 | 1.03 ± 0.042 | 0.851 ± 0.11 | 0.686 ± 0.027 | 0.409 ± 0.017 | 0.996 ± 0.029 | 0.976 ± 0.036 | 0.972 ± 0.076 | 1.03 ± 0.062 | 0.748 ± 0.093 | 0.748 ± 0.062 | 0.365 ± 0.04 | 0.324 ± 0.019 | 1.79 | 3.05 | 2.85 | 2.28
SNU475 LIVER | 1.01 ± 0.03 | 0.985 ± 0.029 | 0.953 ± 0.062 | 0.937 ± 0.028 | 0.922 ± 0.024 | 0.893 ± 0.054 | 0.717 ± 0.012 | 0.432 ± 0.027 | 1.024 ± 0.0066 | 1.05 ± 0.045 | 1.06 ± 0.016 | 1.01 ± 0.068 | 0.565 ± 0.033 | 0.358 ± 0.011 | 0.245 ± 0.014 | 0.234 ± 0.012 | 1.41 | 2.91 | 3 | 2.23
